Data: ChEMBL document CHEMBL4840335, “Rational Design and Development of Novel CDK9 Inhibitors for the Treatment of Acute Myeloid Leukemia” (J Med Chem, 2021)
Activity calls are given as the source filed them. The calls are words filed in the database; no cut-off is given here.

Legend:
Ephrin type-A receptor 2 = Ephrin type-A receptor 2 (Homo sapiens, UniProt P29317); assay: Inhibition of EPHA2 (unknown origin)
[1] = target: Proto-oncogene tyrosine-protein kinase receptor Ret (Homo sapiens, UniProt P07949); assay: Inhibition of RET (unknown origin)
MV4-11 [2] = assay: Antitumor activity against human MV4-11 cells xenografted in Nu/Nu mouse assessed as inhibition of tumor growth at 7.5 mg/kg, po administered for 21 consecutive days by digital caliper method relative to control; format: functional; conditions: MV4-11, po, 504 h, time 21 day
[3] = target: Tyrosine-protein kinase BTK (Homo sapiens, UniProt Q06187); assay: Inhibition of BTK (unknown origin)
MV4-11 [4] = assay: Induction of apoptosis in human MV4-11 cells assessed as activation of cleaved PARP at 5 to 50 nM measured after 24 hrs by Western blot analysis; format: functional, cell-based; conditions: dose 5-50 nM
RPMI-8226 = assay: Antiproliferative activity against human RPMI-8226 cells assessed as reduction in cell proliferation measured after 3 to 7 days by MTS assay; format: functional, cell-based
[5] = target: Insulin-like growth factor 1 receptor (Homo sapiens, UniProt P08069); assay: Inhibition of IGF1R (unknown origin)
Sequence of Insulin-like growth factor 1 receptor (P08069 31-736 limits assumed): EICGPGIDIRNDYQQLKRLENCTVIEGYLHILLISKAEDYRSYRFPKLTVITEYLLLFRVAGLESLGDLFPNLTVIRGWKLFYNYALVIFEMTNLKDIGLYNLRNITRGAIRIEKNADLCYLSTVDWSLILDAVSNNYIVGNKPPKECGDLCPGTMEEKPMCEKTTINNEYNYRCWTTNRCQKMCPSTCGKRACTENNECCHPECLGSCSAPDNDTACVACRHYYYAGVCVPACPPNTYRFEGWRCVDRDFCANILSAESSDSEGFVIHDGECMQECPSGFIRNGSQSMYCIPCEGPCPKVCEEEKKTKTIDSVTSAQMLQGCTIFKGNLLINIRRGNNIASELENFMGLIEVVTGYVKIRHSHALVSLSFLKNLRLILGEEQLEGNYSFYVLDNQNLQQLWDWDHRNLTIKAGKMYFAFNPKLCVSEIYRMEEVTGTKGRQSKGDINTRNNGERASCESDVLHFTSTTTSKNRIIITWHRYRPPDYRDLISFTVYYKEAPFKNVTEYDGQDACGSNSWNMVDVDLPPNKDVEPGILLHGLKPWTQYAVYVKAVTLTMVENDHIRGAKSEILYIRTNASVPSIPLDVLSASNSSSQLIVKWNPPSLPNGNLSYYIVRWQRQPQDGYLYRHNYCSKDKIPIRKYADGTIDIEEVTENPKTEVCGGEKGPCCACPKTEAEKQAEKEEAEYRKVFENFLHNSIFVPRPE
Sequence of Insulin-like growth factor 1 receptor (P08069 741-1367 limits assumed): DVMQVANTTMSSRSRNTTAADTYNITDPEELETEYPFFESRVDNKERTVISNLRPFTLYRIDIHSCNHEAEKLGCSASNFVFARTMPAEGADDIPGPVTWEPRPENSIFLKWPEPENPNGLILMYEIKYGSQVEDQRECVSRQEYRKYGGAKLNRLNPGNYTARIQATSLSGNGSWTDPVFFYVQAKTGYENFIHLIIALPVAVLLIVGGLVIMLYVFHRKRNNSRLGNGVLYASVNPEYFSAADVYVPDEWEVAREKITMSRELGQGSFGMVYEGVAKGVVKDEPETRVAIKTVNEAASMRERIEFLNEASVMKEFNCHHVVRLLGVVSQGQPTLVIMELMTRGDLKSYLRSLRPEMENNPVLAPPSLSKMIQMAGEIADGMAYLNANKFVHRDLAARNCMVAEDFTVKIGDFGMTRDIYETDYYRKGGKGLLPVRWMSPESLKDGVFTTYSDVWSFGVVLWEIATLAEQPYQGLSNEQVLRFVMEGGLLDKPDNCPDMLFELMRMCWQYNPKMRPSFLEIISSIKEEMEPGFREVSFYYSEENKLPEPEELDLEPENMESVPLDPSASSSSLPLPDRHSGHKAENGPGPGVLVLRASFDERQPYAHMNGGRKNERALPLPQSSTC

[6] = target: Serine/threonine-protein kinase 17B (Homo sapiens, UniProt O94768); assay: Inhibition of DRAK2 (unknown origin)
Sequence of Serine/threonine-protein kinase 17B (O94768 whole entry): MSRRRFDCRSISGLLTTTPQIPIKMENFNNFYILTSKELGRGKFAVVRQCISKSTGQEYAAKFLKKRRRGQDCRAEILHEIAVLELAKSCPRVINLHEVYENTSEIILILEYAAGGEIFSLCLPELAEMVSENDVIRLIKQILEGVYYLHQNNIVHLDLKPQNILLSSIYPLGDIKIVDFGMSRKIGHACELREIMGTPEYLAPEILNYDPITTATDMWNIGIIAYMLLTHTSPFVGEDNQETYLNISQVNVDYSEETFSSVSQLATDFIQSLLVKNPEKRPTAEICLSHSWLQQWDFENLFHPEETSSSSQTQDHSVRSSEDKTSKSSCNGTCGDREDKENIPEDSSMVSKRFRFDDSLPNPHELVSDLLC

[7] = target: Fibroblast growth factor receptor 3 (Homo sapiens, UniProt P22607); assay: Inhibition of FGFR3 (unknown origin)
Wee1-like protein kinase = Wee1-like protein kinase (Homo sapiens, UniProt P30291); assay: Inhibition of WEE1 (unknown origin)
CCRF-CEM = assay: Antiproliferative activity against human CCRF-CEM cells assessed as reduction in cell proliferation measured after 3 to 7 days by MTS assay; format: functional, cell-based
[8] = target: Serine/threonine-protein kinase Chk2 (Homo sapiens, UniProt O96017); assay: Inhibition of CHK2 (unknown origin)
Sequence of Serine/threonine-protein kinase Chk2 (O96017 whole entry): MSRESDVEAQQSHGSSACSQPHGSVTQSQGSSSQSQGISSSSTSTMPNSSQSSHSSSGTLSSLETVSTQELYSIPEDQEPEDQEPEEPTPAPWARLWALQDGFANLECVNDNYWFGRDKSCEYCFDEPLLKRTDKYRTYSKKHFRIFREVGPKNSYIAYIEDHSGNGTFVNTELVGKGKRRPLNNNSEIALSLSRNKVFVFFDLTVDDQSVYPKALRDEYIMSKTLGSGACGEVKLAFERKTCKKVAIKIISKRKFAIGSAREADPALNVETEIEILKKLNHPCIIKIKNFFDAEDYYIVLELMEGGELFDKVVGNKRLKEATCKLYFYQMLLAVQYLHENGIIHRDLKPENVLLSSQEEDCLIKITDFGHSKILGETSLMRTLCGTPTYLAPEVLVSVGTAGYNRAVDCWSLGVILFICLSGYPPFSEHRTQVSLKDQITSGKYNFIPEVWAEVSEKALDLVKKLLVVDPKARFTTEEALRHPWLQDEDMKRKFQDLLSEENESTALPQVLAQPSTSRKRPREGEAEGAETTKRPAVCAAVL

[9] = target: Fibroblast growth factor receptor 4 (Homo sapiens, UniProt P22455); assay: Inhibition of FGFR4 (unknown origin)
[10] = MRT in ICR mouse at 20 mg/kg, po measured up to 24 hrs; format: ADME, organism-based; conditions: in vivo
[11] = target: Vascular endothelial growth factor receptor 2 (Homo sapiens, UniProt P35968); assay: Inhibition of KDR (unknown origin)
Sequence of Vascular endothelial growth factor receptor 2 (P35968 whole entry): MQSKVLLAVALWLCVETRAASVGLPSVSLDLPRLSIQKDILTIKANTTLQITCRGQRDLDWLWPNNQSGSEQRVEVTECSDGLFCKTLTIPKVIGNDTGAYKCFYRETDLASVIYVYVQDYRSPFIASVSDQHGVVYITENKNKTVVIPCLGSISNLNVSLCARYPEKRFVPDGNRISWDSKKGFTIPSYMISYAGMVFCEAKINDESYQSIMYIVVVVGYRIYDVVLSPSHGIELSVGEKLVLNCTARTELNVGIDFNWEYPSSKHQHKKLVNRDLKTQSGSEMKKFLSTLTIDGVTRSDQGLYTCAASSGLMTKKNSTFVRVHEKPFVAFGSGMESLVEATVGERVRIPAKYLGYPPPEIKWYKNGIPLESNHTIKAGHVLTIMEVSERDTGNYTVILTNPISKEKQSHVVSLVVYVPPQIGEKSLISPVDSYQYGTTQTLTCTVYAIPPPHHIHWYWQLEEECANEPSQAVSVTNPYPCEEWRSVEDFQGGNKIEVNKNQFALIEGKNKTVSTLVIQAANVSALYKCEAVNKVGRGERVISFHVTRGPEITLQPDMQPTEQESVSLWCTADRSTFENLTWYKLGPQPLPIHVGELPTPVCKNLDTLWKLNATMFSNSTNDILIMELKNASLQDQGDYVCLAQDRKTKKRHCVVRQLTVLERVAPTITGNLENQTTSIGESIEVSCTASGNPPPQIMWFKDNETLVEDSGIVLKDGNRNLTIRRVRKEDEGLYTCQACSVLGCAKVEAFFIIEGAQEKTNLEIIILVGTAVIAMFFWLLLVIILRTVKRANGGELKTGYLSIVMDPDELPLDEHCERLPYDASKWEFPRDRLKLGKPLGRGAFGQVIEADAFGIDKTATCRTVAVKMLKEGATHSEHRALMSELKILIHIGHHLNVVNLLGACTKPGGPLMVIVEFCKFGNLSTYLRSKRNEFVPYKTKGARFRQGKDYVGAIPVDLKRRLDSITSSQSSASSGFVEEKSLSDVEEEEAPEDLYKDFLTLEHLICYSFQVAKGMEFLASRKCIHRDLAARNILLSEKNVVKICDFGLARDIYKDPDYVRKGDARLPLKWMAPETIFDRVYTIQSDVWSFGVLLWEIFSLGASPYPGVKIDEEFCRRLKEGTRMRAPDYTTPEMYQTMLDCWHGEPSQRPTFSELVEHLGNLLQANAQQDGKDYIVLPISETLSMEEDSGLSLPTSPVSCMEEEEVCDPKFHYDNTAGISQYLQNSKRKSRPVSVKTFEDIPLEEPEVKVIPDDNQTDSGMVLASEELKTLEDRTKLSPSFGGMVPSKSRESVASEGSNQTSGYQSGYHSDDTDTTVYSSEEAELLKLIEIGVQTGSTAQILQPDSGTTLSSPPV

[12] = Toxicity in Nu/Nu mouse xenografted with human MV4-11 cells assessed as change in body weight at 7.5 mg/kg, po administered for 21 consecutive days and measured on day 22 (reference value: 23.9 +/- 0.7 g); format: organism-based; conditions: in vivo, 528 h, time 22 day
[13] = AUClast in ICR mouse at 20 mg/kg, po measured up to 24 hrs; format: ADME, organism-based; set-up: route oral, dose 20 mg/kg, time <=24; conditions: in vivo
[14] = target: Serine/threonine-protein kinase Chk1 (Homo sapiens, UniProt O14757); assay: Inhibition of CHK1 (unknown origin)
MV4-11 [15] = assay: Induction of apoptosis in human MV4-11 cells assessed as activation of caspase-3 at 5 to 50 nM measured after 24 hrs by Western blot analysis; format: functional, cell-based; conditions: dose 5-50 nM
MV4-11 [16] = assay: Induction of apoptosis in human MV4-11 cells assessed as early apoptotic cells at 50 nM measured after 24 hrs by annexinV-FITC/propidium iodide staining based flow cytometry (reference value: 0.79 %); format: functional
[17] = target: Cyclin-dependent kinase 6 (Homo sapiens, UniProt Q00534); assay: Inhibition of CDK6 (unknown origin)
Kasumi 1 = assay: Antiproliferative activity against human Kasumi 1 cells assessed as reduction in cell proliferation measured after 3 to 7 days by MTS assay; format: functional, cell-based
[18] = target: Platelet-derived growth factor receptor beta (Homo sapiens, UniProt P09619); assay: Inhibition of PDGFRB (unknown origin)
MM1.S = assay: Antiproliferative activity against human MM1.S cells assessed as reduction in cell proliferation measured after 3 to 7 days by MTS assay; format: functional, cell-based
MV4-11 [19] = assay: Induction of apoptosis in human MV4-11 cells assessed as late apoptotic cells at 10 nM measured after 24 hrs by annexinV-FITC/propidium iodide staining based flow cytometry (reference value: 3.04 %); format: functional
[20] = Cmax in ICR mouse at 20 mg/kg, po measured up to 24 hrs; format: ADME, organism-based; set-up: route oral, dose 20 mg/kg, time <=24; conditions: in vivo
Aurora kinase A = Aurora kinase A (Homo sapiens, UniProt O14965); assay: Inhibition of AURKA (unknown origin)
[21] = target: Fibroblast growth factor receptor 2 (Homo sapiens, UniProt P21802); assay: Inhibition of FGFR2 (unknown origin)
MV4-11 [22] = assay: Induction of apoptosis in human MV4-11 cells assessed as downregulation of BCL2 at 1 to 10 uM measured after 12 hrs by Western blot analysis; format: functional, cell-based; conditions: dose 1-10 µM
[23] = target: Tyrosine-protein kinase ABL1 (Homo sapiens, UniProt P00519); assay: Inhibition of ABL (unknown origin)
Sequence of Tyrosine-protein kinase ABL1 (P00519 whole entry): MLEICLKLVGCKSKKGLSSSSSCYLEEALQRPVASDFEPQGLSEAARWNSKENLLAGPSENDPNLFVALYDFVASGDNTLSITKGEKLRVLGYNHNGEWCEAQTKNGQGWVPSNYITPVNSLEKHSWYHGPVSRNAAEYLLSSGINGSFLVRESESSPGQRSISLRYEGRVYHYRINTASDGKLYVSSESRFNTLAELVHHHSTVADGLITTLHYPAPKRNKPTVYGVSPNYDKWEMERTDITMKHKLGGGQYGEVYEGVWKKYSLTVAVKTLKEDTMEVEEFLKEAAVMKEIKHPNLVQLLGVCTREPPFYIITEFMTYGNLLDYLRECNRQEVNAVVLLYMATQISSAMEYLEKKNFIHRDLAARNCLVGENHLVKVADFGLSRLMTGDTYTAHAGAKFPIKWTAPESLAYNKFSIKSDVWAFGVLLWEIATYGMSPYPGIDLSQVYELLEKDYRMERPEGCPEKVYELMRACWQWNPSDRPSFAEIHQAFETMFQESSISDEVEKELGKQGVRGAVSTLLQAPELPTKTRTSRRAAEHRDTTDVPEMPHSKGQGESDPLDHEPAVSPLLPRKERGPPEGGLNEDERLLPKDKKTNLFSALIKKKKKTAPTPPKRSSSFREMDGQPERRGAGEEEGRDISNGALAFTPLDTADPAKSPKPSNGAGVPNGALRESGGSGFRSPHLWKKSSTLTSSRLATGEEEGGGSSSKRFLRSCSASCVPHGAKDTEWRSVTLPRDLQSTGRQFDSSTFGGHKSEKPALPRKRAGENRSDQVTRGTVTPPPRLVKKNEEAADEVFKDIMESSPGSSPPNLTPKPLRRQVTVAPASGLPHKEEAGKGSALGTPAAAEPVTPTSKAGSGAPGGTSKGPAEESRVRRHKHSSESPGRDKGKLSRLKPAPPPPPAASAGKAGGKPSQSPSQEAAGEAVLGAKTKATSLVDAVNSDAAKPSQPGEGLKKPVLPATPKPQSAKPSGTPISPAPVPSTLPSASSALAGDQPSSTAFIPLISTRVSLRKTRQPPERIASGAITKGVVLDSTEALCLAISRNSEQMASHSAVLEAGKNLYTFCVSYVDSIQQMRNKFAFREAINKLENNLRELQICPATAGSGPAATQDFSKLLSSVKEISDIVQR

MV4-11 [24] = assay: Antiproliferative activity against human MV4-11 cells assessed as reduction in cell proliferation measured after 3 to 7 days by MTS assay; format: functional, cell-based
HL-60 = assay: Antiproliferative activity against human HL-60 cells assessed as reduction in cell proliferation measured after 3 to 7 days by MTS assay; format: functional, cell-based
[25] = target: Serine/threonine-protein kinase PAK 1 (Homo sapiens, UniProt Q13153); assay: Inhibition of PAK1 (unknown origin)
[26] = target: Cyclin-dependent kinase 4 (Homo sapiens, UniProt P11802); assay: Inhibition of CDK4 (unknown origin)
Sequence of Cyclin-dependent kinase 4 (P11802 whole entry): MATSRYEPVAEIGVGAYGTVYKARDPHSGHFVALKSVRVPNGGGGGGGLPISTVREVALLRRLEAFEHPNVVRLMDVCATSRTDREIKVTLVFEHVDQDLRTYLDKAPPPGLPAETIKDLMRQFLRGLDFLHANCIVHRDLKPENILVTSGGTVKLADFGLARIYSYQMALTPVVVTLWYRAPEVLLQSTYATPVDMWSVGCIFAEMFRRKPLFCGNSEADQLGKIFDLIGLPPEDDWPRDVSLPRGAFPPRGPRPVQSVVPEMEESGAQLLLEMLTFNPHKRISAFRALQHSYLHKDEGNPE

For `Cc1n[nH]c2ccc(-c3cc(N[C@@H](CO)c4ccccc4)cnc3Cl)cc12`, the IC50 (Ephrin type-A receptor 2) was > 1000 nM, the IC50 [1] was > 1000 nM and the inhibition in vivo at 7.5 mg/kg (MV4-11 [2]) was 77.4%. The IC50 [3] was > 1000 nM, the Activity (MV4-11 [4]) was “Active” and the IC50 (RPMI-8226) was 5.4 nM. The IC50 [5] was > 1000 nM, the IC50 [6] was > 1000 nM and the IC50 [7] was > 1000 nM. For the same compound, the IC50 (Wee1-like protein kinase) was > 1000 nM, the IC50 (CCRF-CEM) was 2.1 nM and the IC50 [8] was > 1000 nM. The IC50 [9] was > 1000 nM, the MRT [10] was 5.99 h and the IC50 [11] was > 1000 nM. The Activity [12] was 22.1 g, the AUC(0-t) at 24 h [13] was 1760 ng·h/mL and the IC50 [14] was > 1000 nM. For the same compound, the Activity (MV4-11 [15]) was “Active”, the Activity (MV4-11 [16]) was 3.23% and the IC50 [17] was > 1000 nM. For the same compound, the IC50 (Kasumi 1) was 21 nM, the IC50 [18] was > 1000 nM and the IC50 (MM1.S) was 13 nM. For the same compound, the Activity (MV4-11 [19]) was 2.95%, the Cmax [20] was 1570 ng/mL and the IC50 (Aurora kinase A) was > 1000 nM. For the same compound, the IC50 [21] was > 1000 nM, the Activity (MV4-11 [22]) was “inactive” and the IC50 [23] was > 1000 nM. The IC50 (MV4-11 [24]) was 1.6 nM, the IC50 (HL-60) was 44 nM and the IC50 [25] was > 1000 nM. For the same compound, the IC50 [26] was > 1000 nM.
